# “And” between values parts separate entries of the source, which are not always exact repeats. Identical values can stand only once.
# How the values were obtained:
# Ec_ilvC^P2D1-A1 = assay: NKR assay in microtiter plates to measure inhibition by DHIV; format: biochemical, E. coli; conditions: 200 μM NADH, varied (S)-2-acetolactate, pH 7; read-out: K of Ec_ilvC^P2D1-A1 for DHIV (inhibition constant)
# Experimental: NKR activity was assayed kinetically by monitoring the decrease in NADH concentration by measuring the absorbance at 340 nm. A reaction buffer was prepared containing 250 mM potassium phosphate pH 7, 1 mM DTT, 200 μM NADH, 2.5 mM (S)-2-acetolactate, and 10 mM MgCl2. Ten μL purified enzyme were placed into a microtiter plate. The reaction was initiated by addition of 90 μL of the reaction buffer. The kinetics with respect to substrate conversion in presence of the inhibitor were determined by varying the substrate concentration (5.1, 2.55, 1.275, 0.638, 0.319, 0.159, and 0.0799 mM), while keeping the cofactor concentration constant at 200 μM. The inhibition constant was measured by repeating these measurements with different amounts of inhibitor (0, 0.07, 0.13, 0.26, 0.51, and 1.07 mM, final concentrations).
# E. coli KARI = E. coli KARI (Escherichia coli, UniProt P05793); assay: KARI assay in 100-μL scale to measure IC50 in presence of R-DHIV; format: biochemical; conditions: for Ki: calculated via Cheng-Prusoff equation
# Experimental: (§1) Assay buffers were prepared containing 250 mM potassium phosphate pH 7.0, 1 mM DTT, 10 mM MgCl2, 2.5 mM acetolactate, 200 μM NADPH, and increasing concentrations of R-DHIV (0-85.5 mM (final concentrations). Ten μL purified enzyme were placed into a flat-bottom assay plate (Evergreen Scientific). The reactions were initiated by addition of 90 μL assay buffer. The change in absorbance at 340 nm was monitored over 1 min in a plate reader (TECAN).
# S. exigua KARI = S. exigua KARI (Slackia exigua, UniProt D0WGK0); assay: as above; format: biochemical
# Experimental: as §1
# L. lactis KARI = L. lactis KARI (Lactococcus lactis subsp. lactis, UniProt Q02138); assay: as above; format: biochemical
# Experimental: as §1
# [1] = 2.5 mM acetolactate, 200 μM NADPH, pH 7.0
# [2] = calculated via Cheng-Prusoff equation
# Chain of S. exigua KARI (D0WGK0 whole entry): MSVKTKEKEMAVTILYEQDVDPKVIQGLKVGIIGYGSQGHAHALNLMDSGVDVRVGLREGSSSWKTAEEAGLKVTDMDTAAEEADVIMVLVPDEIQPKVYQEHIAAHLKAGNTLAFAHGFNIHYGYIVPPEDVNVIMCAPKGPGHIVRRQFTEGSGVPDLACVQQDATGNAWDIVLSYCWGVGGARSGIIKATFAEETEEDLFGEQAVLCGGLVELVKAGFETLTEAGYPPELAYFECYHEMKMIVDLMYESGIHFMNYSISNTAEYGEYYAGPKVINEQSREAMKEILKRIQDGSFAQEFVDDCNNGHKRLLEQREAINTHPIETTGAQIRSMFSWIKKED
# Chain of E. coli KARI (P05793 whole entry): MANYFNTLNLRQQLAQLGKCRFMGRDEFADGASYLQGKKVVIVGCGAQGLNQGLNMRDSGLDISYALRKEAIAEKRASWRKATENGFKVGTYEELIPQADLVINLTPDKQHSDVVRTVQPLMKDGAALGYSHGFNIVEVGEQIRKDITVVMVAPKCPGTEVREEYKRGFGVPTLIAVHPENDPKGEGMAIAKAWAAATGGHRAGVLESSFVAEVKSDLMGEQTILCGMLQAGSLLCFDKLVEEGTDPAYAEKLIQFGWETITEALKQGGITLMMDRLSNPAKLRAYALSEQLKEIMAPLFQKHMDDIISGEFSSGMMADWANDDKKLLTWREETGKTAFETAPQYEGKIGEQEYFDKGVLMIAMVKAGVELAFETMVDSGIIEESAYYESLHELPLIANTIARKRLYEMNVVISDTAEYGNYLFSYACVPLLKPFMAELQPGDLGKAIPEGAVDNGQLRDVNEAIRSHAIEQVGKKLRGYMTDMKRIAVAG
# Chain of L. lactis KARI (Q02138 whole entry): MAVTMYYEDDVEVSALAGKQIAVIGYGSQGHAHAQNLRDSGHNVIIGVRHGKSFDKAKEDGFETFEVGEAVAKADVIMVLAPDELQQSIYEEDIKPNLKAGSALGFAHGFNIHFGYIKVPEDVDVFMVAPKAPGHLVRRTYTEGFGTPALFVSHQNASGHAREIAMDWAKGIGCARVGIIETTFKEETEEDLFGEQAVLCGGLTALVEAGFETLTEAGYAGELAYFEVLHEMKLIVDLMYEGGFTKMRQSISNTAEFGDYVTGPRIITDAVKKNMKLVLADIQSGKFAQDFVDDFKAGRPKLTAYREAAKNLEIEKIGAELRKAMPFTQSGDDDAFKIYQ
SMILES,Ki (Ec_ilvC^P2D1-A1),Ki (E. coli KARI),IC50 (E. coli KARI; [1]),"IC50 on S. exigua KARI, times higher than IC50 of the E. coli KARI (S. exigua KARI)","IC50 on S. exigua KARI, times higher than IC50 of the L. lactis KARI (S. exigua KARI)","Ki on S. exigua KARI, times higher than Ki calculated for E. coli KARI (S. exigua KARI)",IC50 (S. exigua KARI; [1]),Ki (S. exigua KARI; [2]),IC50 (L. lactis KARI; [1]),Ki (L. lactis KARI; [2])
"CC(C)(O)C(O)C(=O)O (centres unmarked) [DHIV, 2,3-dihydroxyisovalerate]",45 µM,100 µM,–,–,–,–,–,–,–,–
CC(C)(O)[C@@H](O)C(=O)O [R-DHIV],–,100 µM,1000 µM and 1100 µM,27 fold,10 fold,17 fold,26700 µM and 27000 µM,1700 µM,2500 ± 700 µM,1700 µM
